Laboratory results reported in US20120015887A1, “SYNTHETIC PEPTIDE AND USES THEREOF” (priority 2009, published 2012).
Bridge positions count the residues as written; N and C are the ends. Side chains are listed from the residue outwards. Peptide text beside a SMILES is read from it. I, II: the chains in the order shown.

How the values were obtained:
[1] = in vivo
[2] = Body weight, spleen weight and tolerability in Kunming mice with transplanted H22 tumor; conditions: for Weight of spleen / Average weight (X ± S, g) End / Average weight (X ± S, g) Start: 2 mg/kg, ip × 5; for Weight of spleen: end of test; for Average weight (X ± S, g) End: End of test; for Average weight (X ± S, g) Start: Start of test
[3] = The 3rd day after administration, 2 mg/kg ip
[4] = The 5th day after administration, 2 mg/kg ip
[5] = The 7th day after administration, 2 mg/kg ip
[6] = The 9th day after administration, 2 mg/kg ip
[7] = The 11th day after administration, 2 mg/kg ip

In the case of C[C@@H](O)[C@H](N)C(=O)N[C@@H](CCCCN)C(=O)N1CCC[C@H]1C(=O)N[C@@H](CCCNC(=N)N)C(=O)NCCCC[C@H](NC(=O)[C@H](CCCNC(=N)N)NC(=O)[C@@H]1CCCN1C(=O)[C@H](CCCCN)NC(=O)[C@@H](N)[C@@H](C)O)C(=O)NCCCC[C@H](NC(=O)[C@H](CCCCNC(=O)[C@H](CCCNC(=N)N)NC(=O)[C@@H]1CCCN1C(=O)[C@H](CCCCN)NC(=O)[C@@H](N)[C@@H](C)O)NC(=O)[C@H](CCCNC(=N)N)NC(=O)[C@@H]1CCCN1C(=O)[C@H](CCCCN)NC(=O)[C@@H](N)[C@@H](C)O)C(=O)O [(TKPR)4>K2>K, reference compound] (I: H-TKPRK([Arg-Pro-Lys-Thr])K-OH / II: H-TKPRK([Arg-Pro-Lys-Thr]); amide I:6-II:C), the “Abnormity or side effect in test chickens” value (shortened to “Abnormity or side effect”) [1] was “no abnormity or side effect”.
With C[C@@H](O)[C@H](N)C(=O)N[C@@H](CCCCN)C(=O)N1CCC[C@H]1C(=O)N[C@@H](CCCNC(=N)N)C(=O)NCCCC[C@H](NC(=O)[C@H](CCCNC(=N)N)NC(=O)[C@@H]1CCCN1C(=O)[C@H](CCCCN)NC(=O)[C@@H](N)[C@@H](C)O)C(=O)NCCCC[C@H](NC(=O)[C@H](CCCCNC(=O)[C@H](CCCNC(=N)N)NC(=O)[C@@H]1CCCN1C(=O)[C@H](CCCCN)NC(=O)[C@@H](N)[C@@H](C)O)NC(=O)[C@H](CCCNC(=N)N)NC(=O)[C@@H]1CCCN1C(=O)[C@H](CCCCN)NC(=O)[C@@H](N)[C@@H](C)O)C(=O)NCC(=O)O [(TKPR)4>K2>K-G] (I: H-TKPRK([Arg-Pro-Lys-Thr])KG-OH / II: H-TKPRK([Arg-Pro-Lys-Thr]); amide I:6-II:C) the “Abnormity or side effect” value [1] was “no abnormity or side effect”, the “Body weight growth compared with the blank control group” value ([2]; 2 mg/kg ip, test duration) was “the same as that of the blank control group” and the “Death / acute toxicity in tumor-bearing mice” value ([2]; 2 mg/kg ip, test duration) was “no acute toxicity reactions occurred”. The “Side effect in tumor-bearing mice” value ([2]; 2 mg/kg ip, test duration) was “no obvious side effect”, the Weight of spleen [2] was 0.31 ± 0.08 g and the “Average weight (X ± S, g) End” value [2] was 30.6 ± 3.2 g. For the same molecule, the “Average weight (X ± S, g) Start” value [2] was 14.8 ± 0.8 g, the Body weight/g [2, 3] was 19.6 ± 0.8 g and the Body weight/g [2, 4] was 23.3 ± 1.0 g. For the same molecule, the Body weight/g [2, 5] was 26.2 ± 1.9 g, the Body weight/g [2, 6] was 28.5 ± 2.5 g and the Body weight/g [2, 7] was 30.6 ± 3.2 g. The Body weight/g ([2]; The day without administration) was 14.8 ± 0.8 g.
For C[C@@H](O)[C@H](N)C(=O)N[C@@H](CCCCN)C(=O)N1CCC[C@H]1C(=O)N[C@@H](CCCNC(=N)N)C(=O)NCCCC[C@H](NC(=O)[C@H](CCCNC(=N)N)NC(=O)[C@@H]1CCCN1C(=O)[C@H](CCCCN)NC(=O)[C@@H](N)[C@@H](C)O)C(=O)NCCCC[C@H](NC(=O)[C@H](CCCCNC(=O)[C@H](CCCNC(=N)N)NC(=O)[C@@H]1CCCN1C(=O)[C@H](CCCCN)NC(=O)[C@@H](N)[C@@H](C)O)NC(=O)[C@H](CCCNC(=N)N)NC(=O)[C@@H]1CCCN1C(=O)[C@H](CCCCN)NC(=O)[C@@H](N)[C@@H](C)O)C(=O)N[C@H](C(=O)N[C@@H](CCCCN)C(=O)N1CCC[C@H]1C(=O)N[C@@H](CCCNC(=N)N)C(=O)O)[C@@H](C)O [(TKPR)4>K2>K-TKPR] (I: H-TKPRK([Arg-Pro-Lys-Thr])KTKPR-OH / II: H-TKPRK([Arg-Pro-Lys-Thr]); amide I:6-II:C), the “Abnormity or side effect” value [1] was “no abnormity or side effect”.
For C[C@@H](O)[C@H](N)C(=O)N[C@@H](CCCCN)C(=O)N1CCC[C@H]1C(=O)N[C@@H](CCCNC(=N)N)C(=O)O [TKPR, Thr-Lys-Pro-Arg, reference compound] (H-TKPR-OH), the Weight of spleen [2] was 0.32 ± 0.09 g, the “Average weight (X ± S, g) End” value [2] was 29.6 ± 1.7 g and the “Average weight (X ± S, g) Start” value [2] was 15.2 ± 0.7 g. It also gave a Body weight/g [2, 3] of 18.9 ± 0.7 g, a Body weight/g [2, 4] of 21.5 ± 1.1 g and a Body weight/g [2, 5] of 24.4 ± 1.3 g. It also gave a Body weight/g [2, 6] of 27.0 ± 1.5 g, a Body weight/g [2, 7] of 29.6 ± 1.7 g and a Body weight/g ([2]; The day without administration) of 15.2 ± 0.7 g.
